Results as given in patent US10730874B2 (Shire Human Genetic Therapies, Inc., priority 2018, dated 2020).

Target: human activated kallikrein enzyme (plasma kallikrein) (Homo sapiens (Human), UniProt P03952)
Test: Inhibition of human activated plasma kallikrein, fluorogenic peptide substrate assay, 500 pM enzyme format
Format: biochemical
Conditions: 500 pM activated kallikrein enzyme, 300 uM Pro-Phe-Arg-7-amido-4-methylcoumarin substrate, 30 min preincubation, 10 min at RT; read-out: Primary Dose Response Assay: Average EC50
Summary of the method: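 Buffer 20 mM Tris pH 7.5, EDTA, NaCl, PEG-400, Triton X-100; 300 uM Pro-Phe-Arg-AMC; enzyme–inhibitor preincubation 30 min RT. Format one: 500 pM kallikrein, 10 min RT reaction; format two: 5 pM kallikrein, 18 h RT reaction. Fluorescence read at 460 nm (380 nm excitation).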

Chain of human activated kallikrein enzyme (plasma kallikrein) (P03952 391-638): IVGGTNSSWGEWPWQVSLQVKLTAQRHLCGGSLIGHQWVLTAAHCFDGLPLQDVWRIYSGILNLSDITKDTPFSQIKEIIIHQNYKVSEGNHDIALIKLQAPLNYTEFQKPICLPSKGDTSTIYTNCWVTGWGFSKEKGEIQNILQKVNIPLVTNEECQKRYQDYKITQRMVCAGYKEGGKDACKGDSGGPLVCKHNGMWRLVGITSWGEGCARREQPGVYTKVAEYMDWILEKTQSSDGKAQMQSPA
Chain of human activated kallikrein enzyme (plasma kallikrein) (P03952 20-390 partner): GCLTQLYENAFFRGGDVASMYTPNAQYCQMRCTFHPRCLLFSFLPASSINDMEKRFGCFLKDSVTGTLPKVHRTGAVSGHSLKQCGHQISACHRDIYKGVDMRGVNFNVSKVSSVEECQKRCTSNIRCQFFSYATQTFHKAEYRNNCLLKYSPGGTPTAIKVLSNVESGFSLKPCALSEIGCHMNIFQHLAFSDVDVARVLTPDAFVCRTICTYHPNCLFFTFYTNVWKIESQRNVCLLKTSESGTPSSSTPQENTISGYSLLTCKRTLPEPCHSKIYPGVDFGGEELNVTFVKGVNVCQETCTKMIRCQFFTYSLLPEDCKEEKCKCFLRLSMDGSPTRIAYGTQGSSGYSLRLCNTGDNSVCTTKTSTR

## O=C(NCc1ncn2ccc(Cl)cc12)c1cnn(Cc2cn3cc(C4CC4)cc(CN4CCOCC4)c3n2)c1 [Example I-101, N-((7-chloroimidazo[1,5-a]pyridin-1-yl)methyl)-1-((6-cyclopropyl-8-(morpholinomethyl)imidazo[1,2-a]pyridin-2-yl)methyl)-1H-pyrazole-4-carboxamide]
  EC50: < 1 nM

## O=C(NCc1ncn2ccc(Cl)cc12)c1cn(Cc2cn3cc(C4CC4)ccc3n2)nc1C1COC1 [Example I-102, N-((7-chloroimidazo[1,5-a]pyridin-1-yl)methyl)-1-((6-cyclopropylimidazo[1,2-a]pyridin-2-yl)methyl)-3-(oxetan-3-yl)-1H-pyrazole-4-carboxamide]
  EC50: < 1 nM

## COCCOc1cc(C2CC2)cn2cc(Cn3cc(C(=O)NCc4ncn5ccc(Cl)cc45)cn3)nc12 [Example I-103, N-((7-chloroimidazo[1,5-a]pyridin-1-yl)methyl)-1-((6-cyclopropyl-8-(2-methoxyethoxy)imidazo[1,2-a]pyridin-2-yl)methyl)-1H-pyrazole-4-carboxamide]
  EC50: < 1 nM

## CC(=O)c1cc(C2CC2)cn2cc(Cn3cc(C(=O)NCc4ncn5ccc(Cl)cc45)cn3)nc12 [Example I-104a, 1-((8-acetyl-6-cyclopropylimidazo[1,2-a]pyridin-2-yl)methyl)-N-((7-chloroimidazo[1,5-a]pyridin-1-yl)methyl)-1H-pyrazole-4-carboxamide]
  EC50: < 1 nM

## CC(C)(O)c1cc(C2CC2)cn2cc(Cn3cc(C(=O)NCc4ncn5ccc(Cl)cc45)cn3)nc12 [Example I-104b, N-((7-chloroimidazo[1,5-a]pyridin-1-yl)methyl)-1-((6-cyclopropyl-8-(2-hydroxypropan-2-yl)imidazo[1,2-a]pyridin-2-yl)methyl)-1H-pyrazole-4-carboxamide]
  EC50: < 1 nM

## CCOC(=O)Cc1cc(C2CC2)cn2cc(Cn3cc(C(=O)NCc4ncn5ccc(Br)c(F)c45)cn3)nc12 [Example I-105, ethyl 2-(2-((4-(((7-bromo-8-fluoroimidazo[1,5-a]pyridin-1-yl)methyl)carbamoyl)-1H-pyrazol-1-yl)methyl)-6-cyclopropylimidazo[1,2-a]pyridin-8-yl)acetate]
  EC50: < 1 nM

## O=C(O)Cc1cc(C2CC2)cn2cc(Cn3cc(C(=O)NCc4ncn5ccc(Br)c(F)c45)cn3)nc12 [Example I-106, 2-(2-((4-(((7-bromo-8-fluoroimidazo[1,5-a]pyridin-1-yl)methyl)carbamoyl)-1H-pyrazol-1-yl)methyl)-6-cyclopropylimidazo[1,2-a]pyridin-8-yl)acetic acid]
  EC50: < 1 nM

## O=C(NCc1ncn2ccc(Cl)cc12)c1cnn(Cc2cn3cc(C4CC4)cc(CCCO)c3n2)c1 [Example I-107, N-((7-chloroimidazo[1,5-a]pyridin-1-yl)methyl)-1-((6-cyclopropyl-8-(3-hydroxypropyl)imidazo[1,2-a]pyridin-2-yl)methyl)-1H-pyrazole-4-carboxamide]
  EC50: < 1 nM

## CC(C)(O)Cc1cc(C2CC2)cn2cc(Cn3cc(C(=O)NCc4ncn5ccc(Cl)cc45)cn3)nc12 [Example I-109, N-((7-chloroimidazo[1,5-a]pyridin-1-yl)methyl)-1-((6-cyclopropyl-8-(2-hydroxy-2-methylpropyl)imidazo[1,2-a]pyridin-2-yl)methyl)-1H-pyrazole-4-carboxamide]
  EC50: < 1 nM

## O=C(NCc1ncn2ccc(Cl)cc12)c1nnn(Cc2cn3cc(C4CC4)ccc3n2)n1 [Example I-110, N-((7-chloroimidazo[1,5-a]pyridin-1-yl)methyl)-2-((6-cyclopropylimidazo[1,2-a]pyridin-2-yl)methyl)-2H-tetrazole-5-carboxamide]
  EC50: < 1 nM

## O=C(NCc1ncn2ccc(Cl)cc12)c1cn(Cc2cn3nc(C4CC4)ccc3n2)nn1 [Example I-111, N-((7-chloroimidazo[1,5-a]pyridin-1-yl)methyl)-1-((6-cyclopropylimidazo[1,2-b]pyridazin-2-yl)methyl)-1H-1,2,3-triazole-4-carboxamide]
  EC50: < 1 nM

## N#Cc1cc(C2CC2)cn2cc(Cn3cc(C(=O)NCc4ncn5ccc(Cl)cc45)nn3)nc12 [Example I-112, N-((7-chloroimidazo[1,5-a]pyridin-1-yl)methyl)-1-((8-cyano-6-cyclopropylimidazo[1,2-a]pyridin-2-yl)methyl)-1H-1,2,3-triazole-4-carboxamide]
  EC50: < 1 nM

## CCOC(=O)C1CC1c1nn(Cc2cn3cc(C4CC4)ccc3n2)cc1C(=O)NCc1ncn2ccc(Cl)cc12 (centres unmarked) [Example I-113, ethyl 2-(4-(((7-chloroimidazo[1,5-a]pyridin-1-yl)methyl)carbamoyl)-1-((6-cyclopropylimidazo[1,2-a]pyridin-2-yl)methyl)-1H-pyrazol-3-yl)cyclopropane-1-carboxylate]
  EC50: 1 to 10 nM

## O=C(NCc1ncn2ccc(Cl)cc12)c1cnn(Cc2cn3cc(C4CC4)cc(N4CCCC4=O)c3n2)c1 [Example I-114, N-((7-chloroimidazo[1,5-a]pyridin-1-yl)methyl)-1-((6-cyclopropyl-8-(2-oxopyrrolidin-1-yl)imidazo[1,2-a]pyridin-2-yl)methyl)-1H-pyrazole-4-carboxamide]
  EC50: < 1 nM

## CCOC(=O)C1(c2cccn3cc(Cn4cc(C(=O)NCc5ncn6ccc(Cl)cc56)cn4)nc23)CC1 [Example I-115, ethyl 1-(2-((4-(((7-chloroimidazo[1,5-a]pyridin-1-yl)methyl)carbamoyl)-1H-pyrazol-1-yl)methyl)imidazo[1,2-a]pyridin-8-yl)cyclopropane-1-carboxylate]
  EC50: < 1 nM

## O=C(NCc1ncn2ccc(Cl)cc12)c1cnn(Cc2cn3cccc(C4(C(=O)O)CC4)c3n2)c1 [Example I-116, 1-(2-((4-(((7-chloroimidazo[1,5-a]pyridin-1-yl)methyl)carbamoyl)-1H-pyrazol-1-yl)methyl)imidazo[1,2-a]pyridin-8-yl)cyclopropane-1-carboxylic acid]
  EC50: 1 to 10 nM

## O=C(NCc1ncn2ccc(Cl)cc12)c1cnn(Cc2cn3cccc(C4(CO)CC4)c3n2)c1 [Example I-117, N-((7-chloroimidazo[1,5-a]pyridin-1-yl)methyl)-1-((8-(1-(hydroxymethyl)cyclopropyl)imidazo[1,2-a]pyridin-2-yl)methyl)-1H-pyrazole-4-carboxamide]
  EC50: < 1 nM

## C=Cc1ccn2cnc(CNC(=O)c3cnn(Cc4cn5cc(C6CC6)ccc5n4)c3)c2c1 [Example I-118, 1-((6-cyclopropylimidazo[1,2-a]pyridin-2-yl)methyl)-N-((7-vinylimidazo[1,5-a]pyridin-1-yl)methyl)-1H-pyrazole-4-carboxamide]
  EC50: 1 to 10 nM

## CC(C)(O)CCc1cc(C2CC2)cn2cc(Cn3cc(C(=O)NCc4ncn5ccc(Cl)cc45)cn3)nc12 [Example I-119, N-((7-chloroimidazo[1,5-a]pyridin-1-yl)methyl)-1-((6-cyclopropyl-8-(3-hydroxy-3-methylbutyl)imidazo[1,2-a]pyridin-2-yl)methyl)-1H-pyrazole-4-carboxamide]
  EC50: < 1 nM

## O=C(NCc1ncn2ccc(Cl)cc12)c1cn(Cc2cn3cc(C4CC4)ccc3n2)nc1C1CC1C(=O)O (centres unmarked) [Example I-120, 2-(4-(((7-chloroimidazo[1,5-a]pyridin-1-yl)methyl)carbamoyl)-1-((6-cyclopropylimidazo[1,2-a]pyridin-2-yl)methyl)-1H-pyrazol-3-yl)cyclopropane-1-carboxylic acid]
  EC50: < 1 nM
